# What was measured:
# tps1Δ cells = assay: Growth rescue of tps1Δ strain on glucose (growth curves, 2% galactose medium); format: cell-based, S. cerevisiae; settings: 100 μM compound, 2.5 mM glucose
# Method in brief: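 Growth at 30 °C was tracked by OD595 readings every 30 min, with at least triplicate technical wells. Cells came from 2% galactose synthetic precultures, were washed and set to OD 0.1, and received compound 10 min ahead of the glucose addition.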
# [1] = system: A549 lung adenocarcinoma cells; assay: A549 cell proliferation / growth inhibition; format: cell-based, human; settings: for Selected from primary screen for growth inhibition of A549 cells at 50 μM: 50 μM compound, 1 mM glucose; for Selected for having an IC50 ratio (10 mM glucose: 1 mM glucose) of A549 growth higher than WBC-A: IC50 on 10 mM vs 1 mM glucose, compared with WBC-A
# Method in brief: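 A549 growth screened in RPMI with 1 mM glucose, compounds at 50 μM; cell number from counts of Hoechst-stained nuclei after 3 days. Growth curves also followed by IncuCyte phase-contrast confluency over 3–5 days (1000–1500 cells/well), DMSO ≤0.1%, ≥4 technical repeats.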
Structure (SMILES),Rescue of the tps1Δ strain on 2.5 mM glucose at 100 μM (tps1Δ cells),Selected from primary screen for growth inhibition of A549 cells at 50 μM [1],Selected for having an IC50 ratio (10 mM glucose: 1 mM glucose) of A549 growth higher than WBC-A [1]
CC1CCc2c(sc3ncnc(Sc4nnc5n4CCCCC5)c23)C1 (centres unmarked) [31A],No,No,
Cc1nc(SCC(=O)N2CCOCC2)c2cc(-c3ccccc3)sc2n1 [28C],No,No,
CCn1c(Sc2nc(C)nc3scc(-c4cccs4)c23)nnc1-c1ccco1 [38C],No,No,
Cc1nc(SCC(=O)Nc2cc(C)on2)c2c(-c3cccs3)csc2n1 [10C],Yes,Yes,Lower IC50 ratio
Cc1nc(Sc2nc(CSc3ccccc3)nc3sc(C)c(C)c23)n[nH]1 [10A],No,No,
Cc1nc(Sc2nnnn2C)c2c(-c3cccs3)csc2n1 [39A],No,Yes,Lower IC50 ratio
[O-][S+](CCSc1ncnc2scc(-c3ccc(F)cc3)c12)c1ccccc1 (centres unmarked) [45C],No,Yes,Lower IC50 ratio
Cc1sc2ncnc(Sc3nnc4n3CCCCC4)c2c1C [64A],No,No,
Cc1nc(Sc2nnc3n2CCCCC3)c2c3c(sc2n1)CCC3 [63A],No,No,
COCCNC(=O)CN(C)c1nc(C)nc2scc(-c3cccs3)c12 [23B],No,Yes,Lower IC50 ratio
c1ccn2c(Sc3ncnc4sc5c(c34)CCC5)nnc2c1 [60A],No,No,
Cc1nc(NCCCN2CCC(O)CC2)c2c(-c3cccs3)csc2n1 [16B],No,No,
Cc1nc(SCC(=O)N2CCOCC2)c2ccsc2n1 [78C],No,No,
Cc1nc(SCC(=O)NC(C)(C#N)C2CC2)c2c(-c3cccs3)csc2n1 (centres unmarked) [18B],No,Yes,"Higher IC50 ratio, but false-positive"
Cc1nc(Sc2nnnn2-c2ccccc2C)c2c(-c3cccs3)csc2n1 [20C],No,Yes,Lower IC50 ratio
COC(=O)C(C)Sc1nc(C)nc2scc(-c3cccs3)c12 (centres unmarked) [36B],No,No,
Cc1ccc(-c2csc3ncnc(Sc4nc(C5CCCCC5)n(-c5ccccc5)n4)c23)cc1 [1A],No,No,
Cc1nc(SCC(C#N)CCC#N)c2c(-c3cccs3)csc2n1 (centres unmarked) [21C],No,No,
Cc1nc(SCC(N)=O)c2c(C)c(C)sc2n1 [61C],No,No,
COC(=O)CSc1nc(C)nc2scc(-c3cccs3)c12 [53A],Yes,No,
OCCSc1ncnc2sc3c(c12)CCC3 [17C],No,No,
Cc1nc2scc(-c3cccs3)c2c(=O)[nH]1 [48C],No,No,
Cc1nc(Sc2cccc(C(F)(F)F)c2)c2c(-c3cccs3)csc2n1 [25C],No,Yes,Lower IC50 ratio
c1csc(-c2csc3nc(CN4CCOCC4)nc(Sc4ccncc4)c23)c1 [40C],No,Yes,Lower IC50 ratio
